The values below come from patent publication US9346794B1, “Substituted 4-pyridones and their use as inhibitors of neutrophil elastase activity” (Boehringer Ingelheim International GmbH, priority 2012, dated 2016).

The test addresses Human neutrophil elastase (Homo sapiens (Human), UniProt P08246). Put plainly: Human Neutrophil Elastase Assay. It counts as biochemical. Conditions: substrate MeOSuc-Ala-Ala-Pro-Val-AMC 250 μM, fluorescence, pH 7.5. As for the experimental part:
Human Neutrophil Elastase Assay
All other materials were of the highest grade commercially available.
The following buffers were used: Compound buffer: 100 mM Tris, 500 mM NaCl, adjusted to pH 7.5; Assay buffer: 100 mM Tris, 500 mM NaCl, adjusted to pH 7.5, containing 0.01% BSA.
Assay conditions: Test compounds were prediluted in DMSO and subsequently in compound buffer (5% DMSO final). […] After inactivation of the enzyme, fluorescence intensities were measured at 380 nm excitation and 460 nm emission wavelengths.
Each plate contains wells with a high value control (DMSO+enzyme+substrate) and wells with a low value control (DMSO+inactivated enzyme+substrate). IC50 values were estimated using a sigmoidal concentration response curve with variable slope. Means of low values were taken as 0%, means of high values as 100%. IC50 values of selected compound in the Neutrophil Elastase assay: […]

pIC50: −log10 of the molar value. Where only a bound is given, the exact number is not on record here.

Human neutrophil elastase, sequence (P08246 30-247): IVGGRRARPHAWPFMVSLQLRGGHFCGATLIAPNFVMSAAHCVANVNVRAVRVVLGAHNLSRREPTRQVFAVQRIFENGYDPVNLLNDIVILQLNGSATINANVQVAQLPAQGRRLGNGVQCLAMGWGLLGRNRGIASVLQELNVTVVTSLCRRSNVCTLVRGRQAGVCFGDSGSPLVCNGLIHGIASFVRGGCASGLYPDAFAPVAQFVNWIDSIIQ

Broadly, the pIC50 is the negative decadic logarithm of the IC50, by convention in mol/L. A lower pIC50 goes with a large IC50. Regarding `Cc1c(-c2cccc(C(F)F)c2)c(=O)c(C(=O)NCc2ccc(S(C)(=O)=NC#N)cc2)cn1-c1ccncc1` (single isomer, unassigned) [Example 40], the pIC50 is 8.40.
Then `Cc1c(-c2cccc(C(F)(F)F)c2)c(=O)c(C(=O)NCc2ccc(S(C)(=O)=NC#N)cc2)cn1C1CCOC1` (stereo not drawn) [Example 54], with 8.64; and `Cc1c(-c2cccc(C(F)F)c2)c(=O)c(C(=O)NCc2ccc(S(C)(=O)=NC#N)cc2)cn1C(C)C` (stereo not drawn) [Example 1, 5-(3-Difluoromethyl-phenyl)-1-isopropyl-6-methyl-4-oxo-1,4-dihydro-pyridine-3-carboxylic acid 4-(N-cyano-S-methylsulfonimidoyl)-benzylamide], with 8.89.
`Cc1c(-c2cccc(C(F)F)c2)c(=O)c(C(=O)NCc2ccc(S(=O)(=NC#N)C(C)C)cc2)cn1-c1ccnn1C` (stereo not drawn) [Example 37]: the pIC50 was above 9.00.
Then `CCS(=O)(=NC#N)c1ccc(CNC(=O)c2cn(C(C)C)c(C)c(-c3cccc(C(F)F)c3)c2=O)cc1` (stereo not drawn) [Example 31], with above 9.00.
Then `CCn1cc(C(=O)NCc2ccc(S(=O)(CC)=NC#N)cc2)c(=O)c(-c2cccc(C(F)F)c2)c1C` (single isomer, unassigned) [Example 29B], with above 9.00; and `Cc1c(-c2cccc(C(F)F)c2)c(=O)c(C(=O)NCc2ccc(S(C)(=O)=NC#N)cc2)cn1-c1cccnc1` (single isomer, unassigned) [Example 39], with 8.43.
To `Cc1c(-c2cccc(C(F)F)c2)c(=O)c(C(=O)NCc2ccc(S(C)(=O)=NC#N)cc2)cn1C(C)C` (stereo not drawn) [Example 1B, 5-(3-Difluoromethyl-phenyl)-1-isopropyl-6-methyl-4-oxo-1,4-dihydro-pyridine-3-carboxylic acid 4-(N-cyano-S-methylsulfonimidoyl)-benzylamide] belongs 8.89; to `CCS(=O)(=NC#N)c1ccc(CNC(=O)c2cn(C3CC3)c(C)c(-c3cccc(C(F)(F)F)c3)c2=O)cc1` (single isomer, unassigned) [Example 21A], 8.28.
With `Cc1c(-c2ccc(F)c(C(F)(F)F)c2)c(=O)c(C(=O)NCc2ccc(S(C)(=O)=NC#N)cc2)cn1C(C)C` (single isomer, unassigned) [Example 41], the pIC50 is 8.74.
To `CCS(=O)(=NC#N)c1ccc(CNC(=O)c2cn(-c3ccnn3C)c(C)c(-c3cccc(C(F)F)c3)c2=O)cc1` (stereo not drawn) [Example 36] belongs 9.00; to `CCS(=O)(=NC#N)c1ccc(CNC(=O)c2cn(C(C)C)c(C)c(-c3cccc(C(F)(F)F)c3)c2=O)cc1` (stereo not drawn) [Example 12], above 9.00; to `Cc1c(-c2cccc(C(F)F)c2)c(=O)c(C(=O)NCc2ccc(S(C)(=O)=NC#N)cc2)cn1C(C)C` (single isomer, unassigned) [Example 1A, 5-(3-Difluoromethyl-phenyl)-1-isopropyl-6-methyl-4-oxo-1,4-dihydro-pyridine-3-carboxylic acid 4-(N-cyano-S-methylsulfonimidoyl)-benzylamide], 8.51.
To `CCS(=O)(=NC#N)c1ccc(CNC(=O)c2cn(C3CC3)c(C)c(-c3cccc(C(F)(F)F)c3)c2=O)cc1` (single isomer, unassigned) [Example 21B] belongs 8.68.
Compound `Cc1c(-c2ccnc(C(F)(F)F)c2)c(=O)c(C(=O)NCc2ccc(S(C)(=O)=NC#N)cc2)cn1C(C)C` (single isomer, unassigned) [Example 3B, 1-Isopropyl-2-methyl-4-oxo-2′-trifluoromethyl-1,4-dihydro-[3,4′]-bipyridinyl-5-carboxylic acid 4-(N-cyano-S-methylsulfonimidoyl)-benzylamide] had a pIC50 of 8.29.
To `Cc1c(-c2cccc(C(F)(F)F)c2)c(=O)c(C(=O)NCc2ccc(S(C)(=O)=NC#N)cc2)cn1-c1cccnc1` (single isomer, unassigned) [Example 26] belongs 8.48; to `Cc1c(-c2cccc(C(F)(F)F)c2)c(=O)c(C(=O)NCc2ccc(S(C)(=O)=NC#N)cc2)cn1Cc1ccc(C#N)cc1` (stereo not drawn) [Example 9, 1-(4-Cyano-benzyl)-6-methyl-4-oxo-5-(3-trifluoromethyl-phenyl)-1,4-dihydro-pyridine-3-carboxylic acid 4-(N-cyano-S-methylsulfonimidoyl)-benzylamide], above 9.00; to `Cc1c(-c2cccc(C(F)(F)F)c2)c(=O)c(C(=O)NCc2ccc(S(C)(=O)=NC#N)cc2)cn1C1CCOCC1` (stereo not drawn) [Example 53], 8.64.
For `CCn1cc(C(=O)NCc2ccc(S(=O)(=NC#N)C(C)C)cc2)c(=O)c(-c2cccc(C(F)F)c2)c1C` (single isomer, unassigned) [Example 30B], the negative-log IC50 (pIC50) was above 9.00.
Then `CCn1cc(C(=O)NCc2ccc(S(=O)(CC)=NC#N)cc2)c(=O)c(-c2cccc(C(F)F)c2)c1C` (stereo not drawn) [Example 29], with 8.82; and `CCn1cc(C(=O)NCc2ccc(S(=O)(CC)=NC#N)cc2)c(=O)c(-c2cccc(C(F)(F)F)c2)c1C` (stereo not drawn) [Example 10], with 8.92; and `Cc1noc(-n2cc(C(=O)NCc3ccc(S(C)(=O)=NC#N)cc3)c(=O)c(-c3cccc(C(F)(F)F)c3)c2C)c1C` (stereo not drawn) [Example 49], with 8.14.
Compound `Cc1c(-c2cccc(C(F)(F)F)c2)c(=O)c(C(=O)NCc2ccc(S(C)(=O)=NC#N)c[n+]2[O-])cn1C(C)C` (stereo not drawn) [Example 62, 5-(3-Trifluoromethyl-phenyl)-1-isopropyl-6-methyl-4-oxo-1,4-dihydro-pyridine-3-carboxylic acid (5-(N-cyano-S-methylsulfonimidoyl)-1-oxy-pyridin-2-yl)-methylamide] gave a negative-log IC50 (pIC50) of 8.57.
`CCn1cc(C(=O)NCc2ccc(S(=O)(=NC#N)C(C)C)cc2)c(=O)c(-c2cccc(C(F)F)c2)c1C` (single isomer, unassigned) [Example 30A] had a negative-log IC50 (pIC50) of 8.74.
The compound `Cc1c(-c2cccc(C(F)F)c2)c(=O)c(C(=O)NCc2ccc(S(C)(=O)=NC#N)cc2)cn1C1CCC1` (stereo not drawn) [Example 6, 5-(3-Difluoromethyl-phenyl)-1-cyclobutyl-6-methyl-4-oxo-1,4-dihydro-pyridine-3-carboxylic acid 4-(N-cyano-S-methylsulfonimidoyl)-benzylamide] gave a negative logarithm of the IC50 (pIC50) of 8.62.
Take `Cc1c(-c2ccnc(C(F)(F)F)c2)c(=O)c(C(=O)NCc2ccc(S(C)(=O)=NC#N)cc2)cn1-c1cccnc1` (single isomer, unassigned) [Example 45]: the pIC50 is 7.84.
To `Cc1c(-c2cccc(C(F)(F)F)c2)c(=O)c(C(=O)NCc2ccc(S(=O)(=NC#N)C(C)C)cc2)cn1-c1ccnn1C` (stereo not drawn) [Example 19] belongs 9.00; to `CCn1cc(C(=O)NCc2ccc(S(=O)(CC)=NC#N)cc2)c(=O)c(-c2cccc(C(F)F)c2)c1C` (single isomer, unassigned) [Example 29A], 8.66; to `Cc1c(-c2cccc(C(F)(F)F)c2)c(=O)c(C(=O)NCc2ccc(S(C)(=O)=NC#N)cc2)cn1C1CC1` (single isomer, unassigned) [Example 20], 8.25.
Then `Cc1cc(CNC(=O)c2cn(C(C)C)c(C)c(-c3cccc(C(F)(F)F)c3)c2=O)ccc1S(C)(=O)=NC#N` (stereo not drawn) [Example 66, 1-Isopropyl-6-methyl-4-oxo-5-(3-trifluoromethyl-phenyl)-1,4-dihydro-pyridine-3-carboxylic acid 3-methyl-4-(N-cyano-S-methylsulfonimidoyl)-benzylamide], with 8.47; and `Cc1c(-c2ccnc(C(F)(F)F)c2)c(=O)c(C(=O)NCc2ccc(S(C)(=O)=NC#N)cc2)cn1-c1ccccc1` (single isomer, unassigned) [Example 43], with 7.87.
Then `Cc1c(-c2cccc(C(F)(F)F)c2)c(=O)c(C(=O)NCc2ccc(S(C)(=O)=NC#N)cc2)cn1-c1cncnc1` (single isomer, unassigned) [Example 28], with 8.48.
In turn, `CCn1cc(C(=O)NCc2ccc(S(C)(=O)=NC#N)cc2)c(=O)c(-c2cccc(C(F)(F)F)c2)c1C` (racemic) [Example 4, 1-Ethyl-6-methyl-4-oxo-5-(3-trifluoromethyl-phenyl)-1,4-dihydro-pyridine-3-carboxylic acid 4-(N-cyano-S-methylsulfonimidoyl)-benzylamide] showed a negative-log IC50 (pIC50) of 8.52.
To `Cc1c(-c2cccc(C(F)F)c2)c(=O)c(C(=O)NCc2ccc(S(C)(=O)=NC#N)cc2)cn1-c1ccccc1` (single isomer, unassigned) [Example 38] belongs 8.43; to `Cc1c(-c2cccc(C(F)F)c2)c(=O)c(C(=O)NCc2ccc(S(C)(=O)=NC#N)c(F)c2)cn1C(C)C` (stereo not drawn) [Example 32], 8.96.
To `Cc1c(-c2cccc(C(F)(F)F)c2)c(=O)c(C(=O)NCc2ccc(S(C)(=O)=NC#N)cc2)cn1-c1nccs1` (stereo not drawn) [Example 56] belongs 8.51; to `CN=S(=O)(c1ccc(CNC(=O)c2cn(C(C)C)c(C)c(-c3cccc(C(F)F)c3)c2=O)cc1)N(C)C` (stereo not drawn) [Example 61, 5-(3-Difluoromethyl-phenyl)-1-isopropyl-6-methyl-4-oxo-1,4-dihydro-pyridine-3-carboxylic acid 4-(N,N,N′-trimethylsulfamimidoyl)-benzylamide], 7.99.
To `Cc1c(-c2cccc(C(F)(F)F)c2)c(=O)c(C(=O)NCc2ccc(S(C)(=O)=NC#N)cn2)cn1C(C)C` (stereo not drawn) [Example 16, 5-(3-trifluoromethyl-phenyl)-1-isopropyl-6-methyl-4-oxo-1,4-dihydro-pyridine-3-carboxylic acid (5-(N-cyano-S-methylsulfonimidoyl)pyridin-2-yl)methylamide] belongs 8.72.
In the case of `Cc1c(-c2cccc(C(F)(F)F)c2)c(=O)c(C(=O)NCc2ccc(S(=O)(=NC#N)C(C)C)cc2)cn1C1CC1` (single isomer, unassigned) [Example 22A], the pIC50 was 8.35.
